These results are taken from patent US9987294B2, “Mitochondria-targeted anti-tumor agents” (University of Massachusetts, priority 2007, dated 2018).

Entries after “also recorded” stand apart in the source; their conditions may differ. Where a SMILES comes first, the peptide text is derived from it. [ ]: non-standard residue; d: D form.

Data set [1] has as its system mitochondria purified from B-lymphoblastoid Raji cells. The experiment in a line: Mitochondrial membrane potential of TMRM-loaded isolated mitochondria. The format is biochemical, human. The protocol:
(§1) Raji cells were treated with Shepherdin or control scrambled peptidomimetic (100 μM) or 17-AAG (5 μM), loaded with the mitochondrial membrane potential-sensitive fluorescent dye JC-1, and analyzed for changes in green/red fluorescence ratio by flow cytometry. For experiments in a cell-free system, purified mitochondria isolated from primary normal cells, various tumor cells types, or normal mouse organs were suspended in SB buffer. […] For these experiments, TMRM-loaded mitochondria in SB buffer were allowed to reach stable fluorescence, which was set as fully polarized state (maximum membrane potential). The fluorescence intensity after treatment with 2 mM CaCl2 was set as minimum membrane potential (fully depolarized state). Changes in fluorescence intensity after each treatment were plotted as a ratio between maximum and minimum membrane potential.

Data set [2] relates to purified HeLa cell mitochondria. The description is as above. The conditions noted are these: TMRM-loaded HeLa cell (tumor) mitochondria. Format: biochemical, human. The protocol:
as §1

The test system of data set [3] is mitochondria isolated from WS-1 normal human fibroblasts. Described as above. The format is biochemical. The protocol:
as §1
Alternatively, H460 cells were labeled with the fluorescent dye JC-1 (Molecular Probes), and analyzed for changes in red/green (F1-2/F1-1) fluorescence ratio after treatment with the various agents, by multiparametric flow cytometry. Cytochrome c content in pellets or supernatants of drug-treated isolated mitochondria was determined by Western blotting.

The subject of data set [4] is Ras-transformed NIH3T3 mitochondria. The description is as above. Format: biochemical. The protocol: as §1
Data set [5] concerns normal mouse brain mitochondria. The data set is described as above. Format: biochemical. The protocol:
as §1

The test system of data set [6] is normal mouse liver mitochondria. The data set is described as above. Format: biochemical. Here is the method: as §1
Data set [7] concerns mitochondria isolated from normal NIH3T3 cells. The description is as above. The format is biochemical. The protocol:
as §1, with “potential. In some experiments, increasing concentrations (10-100 μg) of TMRM-loaded mitochondria isolated from HeLa or MCF-7 cells were diluted in 3 ml of SB buffer, normalized to a total protein concentration of 500 μg with BSA, and analyzed for changes in membrane potential in response to control or the various Hsp90 antagonists.” for “potential.”

Data set [8] has as its system mitochondria isolated from Raji lymphoblastoid cells. The experiment in a line: Cytochrome c release from isolated mitochondria (Western blotting). The format is biochemical, human. The protocol: (§2) Tumor cell types were treated with controls or the various Hsp90 antagonists, and cytosolic extracts were harvested at increasing time intervals between 5-30 minutes and analyzed by Western blotting. For experiments in a cell-free system, purified mitochondria (20 μg) were suspended in 500 μl of SB buffer (0.2 M sucrose, 10 mM Tris-MOPS, pH 7.4, 5 mM succinate, 1 mM sodium phosphate, 10 μM EGTA-Tris, and 2 μM rotenone). Samples were treated with controls or the various Hsp90 antagonists for 20 minutes at 22° C. At the end of each incubation reaction, mitochondria and supernatants were separated by centrifugation at 6,000×g for 10 minutes, and analyzed by Western blotting.
(In general: In western blotting, separated proteins are transferred to a membrane and probed.)

Data set [9] relates to mitochondria isolated from a p53−/− mouse lymphoma specimen. Described as above. Format: biochemical. The protocol: as §2
Data set [10] deals with primary human sarcoma sample mitochondria. Described as above. Format: biochemical. The protocol: as §2
Data set [11] deals with normal mouse liver mitochondria. The experiment in a line: Cytochrome c and Smac content of isolated mitochondria (Western blotting). The format is biochemical. The protocol: as §2
A further data set deals with Raji cells. The experiment in a line: Mitochondrial membrane potential in JC-1-loaded cells (flow cytometry). The format is cell-based, human. The note with it: within five minutes of addition. Here is the method: as §1
For orientation: Flow cytometry measures light scatter and fluorescence of single cells or particles in a stream.

Data set [12] deals with HeLa cells. The experiment in a line: Cytochrome c release into the cytosol of treated tumor cells (Western blotting). Format: cell-based, human.
Data set [13] has as its system HeLa cells. The experiment in a line: Time-lapse videomicroscopy of cell morphology. Format: cell-based, human. The conditions noted are these: within minutes.
Protocol: For time lapse videomicroscopy, HeLa cells were maintained in 35 mm glass-bottom tissue-culture dishes (Mat-tek). Prior to imaging, cells were incubated with 400 nM CM-H2XRos (M7513, Molecular Probes) under growth conditions for 15 minutes. After washes, fresh culture medium was added, and cells were imaged in an environmental chamber (PDMI-2; Harvard Apparatus) in complete medium with CO2 exchange (0.5 liters/minute) at 37° C. Cells were imaged every 1 minute using a 100× phase contrast lens with a green interference filter on an inverted microscope (Olympus IX-70). Images were captured on a CoolSnap HQ CCD camera (Roper Scientific) and concatenated using Metamorph software (Universal Imaging Corp.). Cells were imaged in the absence of any reagent for the first 10 minutes of the time lapse, at which point Shepherdin or cell permeable scrambled peptidomimetic was added dropwise in between acquisitions. Phase-contrast images of mitochondria were verified by the presence of CM-H2XRos labeling.
In the next data set the test system is tumor cells. The experiment in a line: Cell viability by MTT, tumor cell types. Format: cell-based. The note with it: 1 hour exposure; MTT.
Data set [14] relates to normal human fibroblast cell types (WS-1, HGF, HFF). The experiment in a line: Cell viability by MTT, normal human fibroblast cell types. Here is the method:
Changes in protein expression in the various experiments of siRNA targeting were assessed by Western blotting. For analysis of TRAP-1-directed cytoprotection, primary nontransformed human fibroblasts HFF and WS-1 were transfected with control pcDNA3 or TRAP-1 cDNA by lipofectamine for 24 hours, exposed to increasing concentrations (0-1 μM) of the cell death stimulus staurosporine (STS), and analyzed for cell viability after additional 24 hours incubation by MTT. For analysis of apoptosis, p53+/+ or p53−/−HCT116 cells were treated with control or ANT-GA (100 μM), and analyzed for DEVDase activity (CaspaTag) and propidium iodide staining by simultaneous multiparametric flow cytometry, as described (Dohi et al., J. Clin. Invest. 114(8):1117-27, (2004); Plescia et al., Cancer Cell, 7:457-468, (2005)).

Data set [15] has as its system HeLa cells. The experiment in a line: Cell viability by MTT, HeLa cells. The conditions noted are these: 50 μM; cultures not treated with CsA.

With `CSCC[C@@H](NC(=O)[C@@H](CCCCN)NC(=O)[C@@H](Cc1c[nH]c2ccccc12)NC(=O)[C@@H](CCCCN)NC(=O)[C@H](N)CCCCN)C(=O)N[C@H](CCCNC(=N)N)C(=O)N[C@H](CCCNC(=N)N)C(=O)N[C@H](CC(N)=O)C(=O)N[C@H](CCC(N)=O)C(=O)N[C@H](Cc1ccccc1)C(=O)N[C@H](Cc1c[nH]c2ccccc12)C(=O)N[C@@H](C(=O)N[C@H](CCCCN)C(=O)N[C@@H](C(=O)N[C@H](CCC(N)=O)C(=O)N[C@H](CCCNC(=N)N)C(=O)N[C@H](CC(C)C)C(=O)N[C@H](Cc1ccccc1)C(=O)N[C@H](C)C(=O)N[C@H](CS)C(=O)NCC(=O)N[C@H](CO)C(=O)N[C@H](CO)C(=O)N[C@H](Cc1c[nH]cn1)C(=O)N[C@H](CCCCN)C(N)=O)C(C)C)C(C)C` [Sheph-ANT] (H-[dK][dK][dW][dK][dM][dR][dR][dN][dQ][dF][dW][dV][dK][dV][dQ][dR][dL][dF][dA][dC]G[dS][dS][dH][dK]-NH2; N-terminus and C-terminus assumed), the “membrane potential of mitochondria” value in [1] is “readily depolarized mitochondria”; in data set [3] (WS-1 normal human fibroblasts), “did not cause loss of membrane potential”; in data set [3] (glucose-deprived WS-1, compared with Scram-ANT) it was “did not significantly affect membrane potential”; in data set [4], “readily depolarized Ras-transformed NIH3T3 mitochondria”; in data set [5] it was “did not affect membrane potential”; in data set [6], “did not affect membrane potential; also recorded: had no effect on normal liver mitochondria, with or without CsA”. Also, the “membrane potential of mitochondria” value in data set [7] is “had no effect on mitochondria isolated from normal NIH3T3 cells”. Moreover, the mitochondrial membrane potential entry in data set [2] was “caused sudden loss of mitochondrial membrane potential; also recorded: induces a change in mitochondrial membrane potential”. For the same molecule, the “mitochondrial membrane potential of normal cells” value in data set [3] (summary for normal cells (FIGS. 4A, C, E, G)) was “did not affect mitochondrial membrane potential of normal cells over background levels”. Further, the entries for the “release of cytochrome c from mitochondria” value in data set [8] and in [10] were “concentration-dependent release of cytochrome c; also recorded: reduces mitochondrial Cyt c in a dose-dependent manner” and “concentration-dependent release of cytochrome c; also recorded: increases Cyt c release into the supernatant in a dose-dependent manner”, respectively. In addition, the “cytochrome c release from mitochondria” value in [9] is given as “induced cytochrome c release”. Besides, the “cytochrome c or Smac levels of mitochondria” value in data set [11] is reported as “had no effect on cytochrome c or Smac levels”. The “mitochondrial membrane potential in tumor cells” value in the data set on Raji cells was “induced loss of mitochondrial membrane potential in tumor cells”. For the same molecule, in the data set on HeLa cells [12], the “cytochrome c release into the cytosol” value is “discharge of mitochondrial cytochrome c in the cytosol”. Further, in the data set with HeLa cells [13], the “morphological features of apoptosis” value is “exhibited within minutes morphological features of apoptosis”. For the same molecule, the “tumor cell viability / killing” value with tumor cells is “sufficient to kill disparate tumor cell types in a concentration-dependent manner; also recorded: triggered selective tumor cell death”. Also, the “viability of normal human fibroblast cell types” value in data set [14] is recorded as “did not affect the viability of various normal human fibroblast cell types”. Further, the cell killing result in the data set with HeLa cells [15] is on record as “complete cell killing”.
